From article PMC10504751, “Chalcone/1,3,4-Oxadiazole/Benzimidazole hybrids as novel anti-proliferative agents inducing apoptosis and inhibiting EGFR & BRAFV^600E” (BMC Chemistry, 2023) come the findings set out here.

Data set [1] relates to A-549. Description: Propidium iodide anti-proliferative assay. The data set is classed as cell-based. As to conditions: Homo sapiens, A549; 48 h incubation; read-out: IC50 ± SEM A-549. As to the method:
(§1) The propidium iodide (PI) tests^31, 32 were further used for assessment of the IC50 of all synthesized compounds and compared to Doxorubicin as a positive control against four cancer cell lines; pancreatic cancer cell line (Panc-1), epithelial line cancer cell (A-549), breast cancer cell line (MCF-7), and colon cancer cell line (HT-29).
(§2) Using the propidium iodide fluorescence assay with doxorubicin as the reference drug, IC50 of the 24 compounds 7a-x, was carried out according to a previously reported procedure^31, 32 against a panel of four human cancer cell lines; epithelial cancer cell line (A-549), breast cancer cell line (MCF-7), colon cancer cell line (HT-29) and pancreas cancer cell line (Panc-1). Compounds 7a-x were incubated with cancer cells for 2 days at different concentrations. See Appendix A.
(§3) To explore the antiproliferative potential of compounds propidium iodide fluorescence assay was performed using different cell lines (melanoma cancer cell line LOX-IMVI, pancreatic cancer cell line (Panc-1), epithelial line cancer cell (A-549), breast cancer cell line (MCF-7), and colon cancer cell line (HT-29). To calculate the total nuclear DNA, a fluorescent dye (propidium iodide, PI) is used which can attach to the DNA,^9,^10 thus offering a quick and precise technique. PI cannot pass through the cell membrane and its signal intensity can be considered as directly proportional to the quantity of cellular DNA. Cells whose cell membranes are damaged or have changed permeability are counted as dead ones. The assay was performed by seeding the cells of different cancer cell lines at a density of 3000-7500 cells/well (in 200µl medium) in culture plates followed by incubation for 24h at 37 °C in humidified 5% CO2/95% air atmospheric conditions. The medium was removed; the compounds were added to the plates at 10 µM concentrations (in 0.1% DMSO) in triplicates, followed by incubation for 48 h. DMSO (0.1%) was used as control. After incubation, medium was removed followed by the addition of PI (25 µl, 50µg/mL in water/medium) to each well of the plates. At -80 °C, the plates were allowed to freeze for 24 h, followed by thawing at 25 °C. A fluorometer (Polar-Star BMG Tech) was used to record the readings at excitation and emission wavelengths of 530 and 620 nm for each well. The percentage cytotoxicity of compounds was calculated using the following formula:
(§4) Where ATC= Absorbance of treated cells and AC= Absorbance of control. […]

Data set [2] deals with HT-29. In words: Propidium iodide anti-proliferative assay. The data set is classed as cell-based. The conditions noted are these: Homo sapiens, 48 h incubation, read-out: IC50 ± SEM HT-29. How it is done: as §1, §2, §3, §4
Data set [3] concerns MCF-7. Description: Propidium iodide anti-proliferative assay. The class given is cell-based. As to conditions: Homo sapiens, MCF7; 48 h incubation; read-out: IC50 ± SEM MCF-7. As to the method:
as §1, §2, §3, §4

The subject of data set [4] is Panc-1. In words: Propidium iodide anti-proliferative assay. The data set is classed as cell-based. The conditions noted are these: Homo sapiens, 48 h incubation, read-out: IC50 ± SEM Panc-1. How it is done:
as §1, §2, §3, §4

The nature of data set [5]: MTT cell viability assay in normal cells. The class given is cell-based. As to conditions: human, MCF-10A normal mammary epithelial cells. How it is done:
To check the safety of prepared compounds and evaluate their selectivity towards tumor cells over normal ones, the toxicity of compounds 7a-x were evaluated by 3-(4,5-Dimethylthiazole-2-yl)-2,5-diphenyltetrazol (MTT) assay on the normal human mammary epithelial cell line (MCF-10 A). The human mammary epithelial cell lines were incubated for four days with a concentration of 50 µM of compounds 7a-x.
MTT assay was done to determine the effect of the synthesized compounds on the viability of mammary epithelial cells (MCF-10 A). Compounds 7a-x were incubated with MCF-10 A cells for 4 days at 50 µM concentration, and the viability of cells was determined. See Appendix A.
MTT assay was carried out to study the effect of compounds on mammary epithelial cells (MCF-10A).^7, ^8 The medium in which cells were propagated contained Dulbecco's modified Eagle's medium (DMEM)/ Ham's F-12 medium (1:1) supplemented with epidermal growth factor (20 ng/mL), hydrocortisone (500 ng/mL), insulin (10 μg/mL), 2 mM glutamine and 10% foetal calf serum. After every 2-3 days, the cells were passaged using trypsin ethylenediamine tetra acetic acid (EDTA). The cells were seeded at a density of 10^4 cells mL^-1 in flat-bottomed culture plates containing 96 wells each. After 24 h, medium was removed from the plates and the compounds in (in 0.1% DMSO) were added (in 200 μL medium to yield a final concentration of 0.1% v/v) to the wells of plates. A single compound was designated with four wells followed by incubation of plates for 96h at 37°C. After incubation, medium was removed completely from the plates followed by addition of MTT (0.4 mg/mL in medium) to each well and subsequent incubation of plates for 3h. MTT (along with the medium) was removed and DMSO (150μL) was added to each well of the culture plates, followed by vortexing and subsequent measurement of absorbance (at 540 nm) using microplate reader.
In general terms: Tetrazolium dyes change colour on reduction, which living cells bring about.

In data set [6] the test system is Caspase-8 in MCF-7 breast cancer cells. In words: Caspase-8 assay. The data set is classed as cell-based, human.
In data set [7] the test system is Caspase-9 in MCF-7 breast cancer cells. In words: Caspase-9 assay. The data set is classed as cell-based, human.
Data set [8] deals with Cytochrome C in MCF-7 human breast cancer cell line. In words: Cytochrome C assay. The class given is cell-based.
Data set [9] relates to Panc-1, A-549, MCF-7 and HT-29. In words: Propidium iodide anti-proliferative assay, four cell lines together. The data set is classed as cell-based. The conditions noted are these: Homo sapiens; range over Panc-1, A-549, MCF-7, HT-29; read-out: IC50 range on the four tested cell lines. As to the method: as §1, §2
as §3, with “The medium was removed; the compounds were added to the plates at 10 µM concentrations (in 0.1% DMSO) in triplicates, followed by incubation for 48 h. DMSO (0.1%) was used as control. After incubation, medium was removed followed by the addition of PI (25 µl, 50µg/mL in water/medium) to each well of the plates. At -80 °C, the plates were allowed to freeze for 24 h, followed by thawing at 25 °C.” left out
as §4

Data set [10] deals with Caspase-3 in MCF-7 breast cancer cells. Description: Caspase-3 assay.
Protocol: All reagents were allowed to reach room temperature before use. All liquid reagents were gently mixed before use. The number of 8-well strips needed for the assay was determined. These were inserted into the frame(s) for current use. A total of 100 µL of the Standard Diluent Buffer was added to the zero standard wells. Well(s) reserved for chromogen blank were left empty. A total of 100 µL of standards and controls or diluted samples was added to the appropriate microtiter wells. The sample dilution chosen was optimized for each experimental system. The side of the plate was gently tapped on to
mix. Wells were covered with a plate cover and incubated for 2 h at room temperature. The solution was thoroughly aspirated or decanted from the wells and the liquid was discarded; wells were washed four times. […] The side of the plate was gently tapped on to mix. The plate was covered with a plate cover and incubated for 1h at room temperature. The solution was thoroughly aspirated or decanted from wells and the liquid was discarded; wells were washed four times. A total of 100 µL Anti-Rabbit IgG HRP Working Solution was added to each well except the chromogen blank(s). The working dilution was prepared as described in Preparing IgG HRP. Wells were covered with the plate cover and incubated for 30 min at room temperature. The solution was thoroughly aspirated or decanted from the wells and the liquid was discarded. Wells were washed four times. A total of 100 µL of Stabilized Chromogen was added to each well. The liquid in the wells began to turn blue. It was incubated for 30 min at room temperature and in the dark. The incubation time for chromogen substrate was determined by the microtiter plate reader used. Many plate readers have the capacity to record a maximum optical density (O.D.) of 2.0. The O.D. values were monitored, and the substrate reaction was stopped before the O.D. of the positive wells exceeds the limits of the instrument. The O.D. values at 450 nm could only be read after the Stop Solution had been added to each well. A total of 100 µL of Stop Solution was added to each well. The side of the plate was gently tapped to mix. The solution in the wells changed from blue to yellow. The absorbance of each well was read at 450 nm, having blanked the plate reader against a chromogen blank composed of 100 µL each of Stabilized Chromogen and Stop Solution. The plate was read within 2 h after adding the Stop Solution. A curve fitting software was used to generate the standard curve.
The concentrations for unknown samples and controls from the standard curve were read. Value(s) obtained for sample(s) by the appropriate dilution factor were multiplied to correct for the dilution in step 3.
Data set [11] concerns BAX in MCF-7. Description: BAX activation assay.
Protocol: All reagents were brought to room temperature for at least 30 min before opening (except the human BAX-α Standard). Human BAX-α Standard solution was not be left at room temperature for more than 10 min. Duplicates of all standards, controls, and samples were run. The Assay Layout Sheet was used to determine the number of wells to be used, and any remaining wells were put with the desiccant back into the pouch, and the ziplock was sealed. Unused wells were stored at 4 ◦C. A total of 100 µL of Assay Buffer was pipetted into the S0 (0 pg/mL standard) wells. A total of 100 µL of Standards #1 through #6 was pipetted into the appropriate wells. A total of 100 µL of the samples was pipetted into the appropriate wells. The plate was gently tapped to mix the contents. The plate was sealed and incubated at room temperature on a plate shaker for 1 h at ~500 rpm. The contents of the wells were emptied and washed by adding 400 µL of wash solution to every well. The wash was repeated four more times for a total of five washes. After the final wash, the wells were emptied or aspirated and firmly the plate on a lint-free paper towel was tapped to remove any remaining wash buffer. A total of 100 µL of yellow antibody was pipetted into each well, except the Blank. The plate was sealed and incubated at room temperature on a plate shaker for 1 h at ~500 rpm. The contents of the wells were emptied and washed by adding 400 µL of wash solution to every well. The wash was repeated four more times for a total of five washes. After the final wash, the wells were emptied or aspirated, and the plate was firmly tapped on a lint-free paper towel to remove any remaining wash buffer. A total of 100 µL of blue Conjugate was added to each well, except the Blank. The plate was sealed and incubated at room temperature on a plate shaker for 30 min at ~500 rpm. The contents of the wells were emptied and washed by adding 400 µL of wash solution to every well. The wash was repeated four more times for a total of five washes. After the final wash, the wells were emptied or aspirated and the plate was firmly tapped on a lint-free paper towel to remove any remaining wash buffer. A total of 100 µL of Substrate Solution was pipetted into each well. It was incubated for 30 min at room temperature on a plate shaker at ~500 rpm. A total of 100 µL Stop Solution was pipetted into to each well. The plate reader was blanked against the Blank wells, and the optical density was read at 450 nm. The average net optical density (OD) bound for each standard and sample was calculated by subtracting the average Blank OD from the average OD for each standard and sample. Using linear graph paper, the Average Net OD for each standard versus BAX concentration in each standard were plotted. A straight line was approximated through the points. The concentration of BAX in the unknowns could be determined by interpolation.
Data set [12] deals with Bcl-2 in MCF-7. In words: Bcl-2 inhibition assay.
Protocol: All reagents were thoroughly mixed without foaming before use. The microwells were washed twice with approximately 300 µL Wash Buffer per well with the thorough aspiration of microwell contents between washes. Care was taken not to scratch the surface of the microwells. After the last wash, the wells were emptied and microwell strips were tapped on an absorbent pad or paper towel to remove excess Wash Buffer. The microwell strips were used immediately after washing or placed upside down on a wet absorbent paper for not longer than 15 min. Wells were not allowed to dry. A total of 100 µL of Sample Diluent was added in duplicate to all standard wells and the blank wells. Standard (1:2 dilution) in duplicate was prepared ranging from 32 to 0.5 ng/mL. A total of 100 µL of Sample Diluent, in duplicate, was added to the blank wells. A total of 80 µL of Sample Diluent, in duplicate, was added to the sample wells. A total of 20 µL of each sample, in duplicate, was added to the designated wells. A total of 50 µL of diluted biotin was added, conjugated to all wells, including the blank wells. It was covered with a plate cover and incubated at room temperature on a microplate shaker at 100 rpm for 2 h. The plate cover was removed and the wells were emptied. Microwell strips were washed times as described in Step 2. A total of 100 µL of diluted Streptavidin-HRP was added to all wells, including the blank wells. It was covered with a plate cover and incubated at room temperature on a microplate shaker at 100 rpm for 1 h. The plate cover was removed and the wells were emptied. Microwell strips were washed three times, as described in Step 2. A total of 100 µL of mixed TMB Substrate Solution was pipetted into all wells, including the blanks. The microwell strips were incubated at room temperature (18 ◦C to 25 ◦C) for about 15 min, on a rotator set at 100 rpm. Direct exposure to intense light was avoided. The point at which the substrate reaction is stopped was determined by the ELISA reader. Many ELISA readers record absorbance only up to 2.0 O.D. Therefore, the color development within individual microwells was watched by the person running the assay, and the substrate reaction was stopped before positive wells were no longer properly detectable. The enzyme reaction was stopped by quickly pipetting 100 µL of Stop Solution into each well, including the blank wells. It was important that the Stop Solution was spread quickly and uniformly throughout the microwells to inactivate the enzyme completely. Results were read immediately after the Stop Solution was added or within one hour if the microwell strips were stored at 2–8 ◦C in the dark. The absorbance of each microwell was read on a spectrophotometer using 450 nm as the primary wavelength.

Where “and” joins values, the source holds several entries; their conditions need not be identical. Identical values can stand only once.

Consider `COc1ccc(-c2nc3cc(-c4nnc(SCC(=O)Nc5ccc(C(=O)/C=C/c6cc(OC)c(OC)c(OC)c6)cc5)o4)ccc3[nH]2)cc1OC` [Compound 7t, 2-{5-[2-(3,4-Dimethoxyphenyl)-1 H-benzo[d]imidazol-5-yl]-1,3,4-oxadiazol-2-ylthio}-N-{4-[(E)-3-(3,4,5-trimethoxyphenyl)acryloyl]phenyl}acetamide], for which the melting point lay within 190 to 193 °C. Also, the IC50 in [1] was determined as 10.6 ± 1.1 µM. The concentration for half-maximal inhibition (IC50) in data set [2] worked out at 10.8 ± 1.2 µM. In addition, the IC50 in data set [3] was 10.1 ± 1 µM. In data set [4], the IC50 was 10.9 ± 1.2 µM. Further, the viability at 96 h, 50 µM in data set [5] is 88%.
Turning to `COc1ccc(/C=C/C(=O)c2ccc(NC(=O)CSc3nnc(-c4ccc5[nH]c(-c6ccc(Cl)cc6)nc5c4)o3)cc2)cc1OC` [Compound 7i, 2-{5-[2-(4-Chlorophenyl)-1 H-benzo[d]imidazol-5-yl]-1,3,4-oxadiazol-2-ylthio}-N-{4-[(E)-3-(3,4-dimethoxyphenyl)acryloyl]phenyl}acetamide], the melting point was in the range of 208 to 210 °C. In addition, the IC50 in [1] was 9.7 ± 1.1 µM. For the same compound, in data set [2], the IC50 was determined as 10.2 ± 1.3 µM. In addition, in [3], the IC50 is 9.2 ± 1 µM. For the same compound, the IC50 in data set [4] amounted to 10.2 ± 1.2 µM. The viability at 96 h, 50 µM in data set [5] is 84%.
With `COc1ccc(/C=C/C(=O)c2ccc(NC(=O)CSc3nnc(-c4ccc5[nH]c(-c6ccc(OC)c(OC)c6)nc5c4)o3)cc2)cc1OC` [Compound 7s, 2-{5-[2-(3,4-Dimethoxyphenyl)-1 H-benzo[d]imidazol-5-yl]-1,3,4-oxadiazol-2-ylthio}-N-{4-[(E)-3-(3,4-dimethoxyphenyl)acryloyl]phenyl}acetamide], the melting point fell in the range of 190 to 193 °C. For the same compound, the IC50 in data set [1] was determined as 3.8 ± 0.6 µM. Also, the half-inhibitory concentration (IC50) in data set [2] is 4.55 ± 0.6 µM. Further, in data set [3], the half-inhibitory concentration (IC50) turned out to be 3.15 ± 0.5 µM. Also, the half-maximal inhibitory concentration (IC50) in [4] came out at 4.3 ± 0.6 µM. The compound also registered a viability at 96 h, 50 µM in data set [5] of 87%.
As for `COc1ccc(/C=C/C(=O)c2ccc(NC(=O)CSc3nnc(-c4ccc5[nH]c(-c6cc(OC)c(OC)c(OC)c6)nc5c4)o3)cc2)cc1` [Compound 7w, 2-{5-[2-(3,4,5-Trimethoxyphenyl)-1 H-benzo[d]imidazol-5-yl]-1,3,4-oxadiazol-2-ylthio}-N-{4-[(E)-3-(4-methoxyphenyl)acryloyl]phenyl}acetamide], the melting point was 200 to 204 °C. Further, in [1], the 50% inhibitory concentration (IC50) came to 10.9 ± 1.1 µM. For the same compound, the IC50 in [2] came out at 11.2 ± 1.3 µM. In addition, the IC50 in data set [3] was 10.2 ± 1.2 µM. Besides, the IC50 in [4] amounted to 11.2 ± 1.2 µM. Further, the viability at 96 h, 50 µM in [5] stood at 91%.
For `COc1ccc(/C=C/C(=O)c2ccc(NC(=O)CSc3nnc(-c4ccc5[nH]c(-c6cc(OC)c(OC)c(OC)c6)nc5c4)o3)cc2)cc1OC` [Compound 7x, 2-{5-[2-(3,4,5-Trimethoxyphenyl)-1 H-benzo[d]imidazol-5-yl]-1,3,4-oxadiazol-2-ylthio}-N-{4-[(E)-3-(3,4-dimethoxyphenyl)acryloyl]phenyl}acetamide], the melting point fell in the range of 212 to 215 °C. Moreover, in [1], the half-maximal inhibitory concentration (IC50) is 11.5 ± 1.2 µM. Moreover, the IC50 in data set [2] is 12.5 ± 1.5 µM. Further, the IC50 in data set [3] turned out to be 10.8 ± 1.1 µM. Moreover, the concentration for half-maximal inhibition (IC50) in data set [4] was determined as 11.8 ± 1.2 µM. In [5], this compound came in with a viability at 96 h, 50 µM of 85%.
Take `COc1cccc2c1C(=O)c1c(O)c3c(c(O)c1C2=O)C[C@@](O)(C(=O)CO)C[C@@H]3O[C@H]1C[C@H](N)[C@H](O)[C@H](C)O1` [Doxorubicin, reference compound]: the half-inhibitory concentration (IC50) in data set [1] is 1.21 ± 0.1 µM; in [2] it was 1.01 ± 0.1 µM; in data set [3] it was 0.9 ± 0.1 µM; in data set [4], 1.41 ± 0.1 µM; in data set [9], 900 to 1410 nM. In data set [6] (MCF-7, vs untreated control), the “Caspase-8 Fold change” value came to 10.00 fold. Further, in data set [6] (MCF-7 breast cancer cells), the “Caspase-8 Conc” value is 1.750 ng/mL. For the same compound, the “Caspase-9 Fold change” value in data set [7] (MCF-7, vs untreated control) came out at 17.40 fold. Moreover, in data set [7] (MCF-7 breast cancer cells), the “Caspase-9 Conc” value is 16.200 ng/mL. Further, the “Cytochrome C Fold change” value in [8] (MCF-7, vs untreated control) was found to be 13.10 fold. For the same compound, the “Cytochrome C Conc” value in data set [8] (MCF-7 breast cancer cells) was found to be 0.604 ng/mL. The “Caspase-3 Fold change” value in [10] (MCF-7, vs untreated control) is 7.65 fold. Moreover, the “Caspase-3 Conc” value in data set [10] (MCF-7 breast cancer cells) amounted to 503.200 ± 4.20 pg/mL. Besides, in [11] (MCF-7), the “BAX Conc” value is 276 pg/mL and 276.500 pg/mL. Further, in data set [11] (MCF-7, vs untreated control), the “BAX Fold change” value is listed as 32.5 fold. For the same compound, the “Bcl-2 Conc” value in data set [12] (MCF-7) was 0.98 ng/mL and 0.985 ng/mL. The “Bcl-2 Fold reduction” value in [12] (MCF-7, vs untreated control) is 5.1 fold.
With `COc1cc(/C=C/C(=O)c2ccc(NC(=O)CSc3nnc(-c4ccc5[nH]c(-c6ccc(Cl)cc6)nc5c4)o3)cc2)cc(OC)c1OC` [Compound 7j, 2-{5-[2-(4-Chlorophenyl)-1 H-benzo[d]imidazol-5-yl]-1,3,4-oxadiazol-2-ylthio}-N-{4-[(E)-3-(3,4,5-trimethoxyphenyl)acryloyl]phenyl}acetamide], the melting point lay within 223 to 225 °C. Besides, the 50% inhibitory concentration (IC50) in [1] is 9.95 ± 1.1 µM. In data set [2], the IC50 was determined as 10.7 ± 1.1 µM. Besides, the 50% inhibitory concentration (IC50) in [3] is 9.4 ± 1.2 µM. In addition, the 50% inhibitory concentration (IC50) in [4] was determined as 10.3 ± 1.2 µM. The compound further came in with a viability at 96 h, 50 µM in data set [5] of 89%.

What is called IC50 is the midpoint of a concentration-inhibition curve. As a reminder, the viability is a read-out of living cells in per cent, often relative to untreated cells. The melting point is the temperature, or range, at which the solid turns liquid.
